Results on 14 compounds are retold here after patent US20250100996A1, “HETEROCYCLOALKYL AND HETEROARYL COMPOUNDS AND PHARMACEUTICAL COMPOSITIONS THAT MODULATE IKZF2” (Plexium, Inc., priority 2021, published 2025).

A word on the EC50: it is the midpoint of the concentration-response curve. The term inhibition denotes the relative decrease from the control value, in per cent. The DC50 is the concentration at which degradation of the target reaches its halfway point. Higher therefore signals a less potent degrader.

The target in assay [1] is T1, human E3 ligase component cereblon (CRBN) (Homo sapiens, UniProt Q96SW2).
T1 construct: host or cells: HEK293T
The assay is described as follows: Cereblon (CRBN) target engagement, NanoBRET TE Intracellular E3 Ligase Assay in transfected HEK-293T cells. The following applies: read-out: CRBN Binding EC50. In a few lines: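 HEK-293T cells transiently co-transfected with NanoLuc-CRBN (N-terminal NanoLuc) and DDB1 were dosed with CRBN tracer and an 11-point compound series (typically 10 μM to 100 pM) for 2 h at 37° C. BRET at 450/610 nm gave IC50 by four-parameter logistic fit.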

Assay [2] concerns the target T2, IKZF2 (Helios) (Homo sapiens, UniProt Q96SW2+Q9UKS7).
T2 construct: Leu-Asp junction (codons ctcgac before the linker); mScarlet (behind P2A) (C, cleaved yes); expressed in transfected cells
Nature of the assay: IKZF2 reporter degradation assay (HEK 293T IKZF2-mNeonGreen reporter cell line). It is filed as cell-based. The settings on record: @ 1 μM, HEK 293T IKZF2-mNeonGreen reporter, 24 hours incubation; for inhibition at 1 µM: HEK-293T, 24 h. The method in brief:
(§1)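 Degradation is measured as loss of mNeonGreen fused C-terminally to each human IKZF protein in clonal HEK 293T cells, with co-expressed mScarlet as reference. Treatment lasts 24 h at 37 °C. DC50 is derived by logistic fitting of percent positive cells.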

The target of assay [3] is T3, IKZF2 (Helios) (Homo sapiens, UniProt Q9UKS7).
T3 construct: Leu-Asp junction (codons ctcgac before the linker); mScarlet (behind P2A) (C, cleaved yes); expressed in transfected cells
Described as above. In kind it is cell-based. The following applies: HEK 293T IKZF2-mNeonGreen reporter, 24 hours incubation. In a few lines: as §1

A further assay has as its target T4, IKZF1 (Ikaros) (Homo sapiens, UniProt Q13422).
T4 construct: mScarlet (behind P2A) (C, cleaved yes); expressed in transfected cells
The assay is described as follows: IKZF1 reporter degradation assay (HEK 293T IKZF1-mNeonGreen reporter cell line). In kind it is cell-based. The following applies: HEK 293T IKZF1-mNeonGreen reporter, 24 hours incubation. The text has this:
Polycistronic plasmids were constructed for the mammalian expression of fluorescent reporter fusions of human transcription factors IKZF1 (Ikaros), IKZF2 (Helios), and IKZF3 (Aiolos). The respective protein sequences had their C-terminal end joined to a GGGGS linker repeated three times followed by mNeonGreen, P2A sequence, and mScarlet. The DNA sequences of the open reading frames are as follows:
IKZF1, IKZF2, and IKZF3 constructs were cloned into the UCOE Hygromycin expression vectors (Millipore Sigma). Reporter constructs were transfected using cationic lipid reagents into adherent HEK 293T cells and stable integrants were selected by treatment with 200 μg/mL hygromycin B. Clonal populations were obtained from the population of stable integrants either by limiting dilution or fluorescence activated cell sorting.
The clonal stable cell lines were maintained under constant 200 μg/mL hygromycin B selection while being passaged for use in the degradation assays. […] The fluorescence intensity of the IKZF1/2/3-mNeonGreen (FITC channel) and mScarlet (PE channel) reporters were routinely analyzed by flow cytometry to confirm consistent expression levels between experiments.
The IKZF1/IKZF2/IKZF3 degradation assays were carried out by harvesting the HEK 293T reporter cell lines and resuspending the cells in media formulated for reduced background fluorescence (FluoroBrite; Thermo Fisher). The respective cell lines were seeded at a density of 4000 cells/well into black-walled 384-well optical grade assay tissue culture plates. The cells were incubated overnight at 37° C. to allow for attachment to the assay plate. Dilutions of the compounds were prepared in DMSO from 10 mM compound stocks. The assay plates were treated with appropriate concentrations of the compounds by dispensing the DMSO dilutions in quadruplicate wells with an upper limit of 0.5% final DMSO.
After 24 hours incubation with the compounds, the assay plates were imaged on an ImageXpress Pico microscopy system (cells maintained at 37° C. during imaging) to obtain the fluorescent readouts. The assay plates were imaged in the FITC and Tetramethylrhodamine (TRITC) channels to obtain the mNeonGreen fluorescence intensity (reporter degradation data) and mScarlet fluorescence intensity (for cell segmentation). 293T-IKZF1 and 293T-IKZF3 reporter cell lines were imaged with exposures of 500 milliseconds (ms) for both FITC and TRITC channels, while the 293T-IKZF2 reporter cell line was imaged with exposures of 1000 ms for FITC and 1250 ms for TRITC. The resulting data was analyzed with Cell Reporter Xpress software using the 2-channel cell scoring analysis with a “percent positive” readout. The TRITC channel was selected for the “nuclei” segmentation with a threshold of 20 while the FITC channel was selected for the “Marker 1” segmentation and a threshold of 100 for the IKZF1 and IKZF3 reporter lines. […] The minimum segmentation width was set to 6 micrometers and the maximum segmentation width was set to 15 micrometers for all cell lines. The DC50 calculations were determined by regression to best fit four-parameter logistic curves using GraphPad Prism.

Another assay has as its target T5, IKZF3 (Aiolos) (Homo sapiens, UniProt Q9UKT9).
T5 construct: Leu-Asp junction (codons ctcgac before the linker); mScarlet (behind P2A) (C, cleaved yes); expressed in transfected cells
Nature of the assay: IKZF3 reporter degradation assay (HEK 293T IKZF3-mNeonGreen reporter cell line). In kind it is cell-based. The settings on record: HEK 293T IKZF3-mNeonGreen reporter, 24 hours incubation. The method in brief:
as §1

T4 sequence (Q96SW2 whole entry partner): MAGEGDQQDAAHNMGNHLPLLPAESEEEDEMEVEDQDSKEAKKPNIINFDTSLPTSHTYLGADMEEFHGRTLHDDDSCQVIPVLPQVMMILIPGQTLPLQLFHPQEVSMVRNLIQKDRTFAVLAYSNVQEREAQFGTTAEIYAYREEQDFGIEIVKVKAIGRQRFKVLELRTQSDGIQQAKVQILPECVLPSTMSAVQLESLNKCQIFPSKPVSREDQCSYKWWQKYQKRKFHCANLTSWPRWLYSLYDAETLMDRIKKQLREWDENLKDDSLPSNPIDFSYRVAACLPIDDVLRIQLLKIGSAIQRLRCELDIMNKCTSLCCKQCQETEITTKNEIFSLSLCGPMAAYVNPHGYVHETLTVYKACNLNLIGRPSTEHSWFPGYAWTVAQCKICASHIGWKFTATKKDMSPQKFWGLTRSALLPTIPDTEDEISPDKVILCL
T4 sequence (Q16531 whole entry partner): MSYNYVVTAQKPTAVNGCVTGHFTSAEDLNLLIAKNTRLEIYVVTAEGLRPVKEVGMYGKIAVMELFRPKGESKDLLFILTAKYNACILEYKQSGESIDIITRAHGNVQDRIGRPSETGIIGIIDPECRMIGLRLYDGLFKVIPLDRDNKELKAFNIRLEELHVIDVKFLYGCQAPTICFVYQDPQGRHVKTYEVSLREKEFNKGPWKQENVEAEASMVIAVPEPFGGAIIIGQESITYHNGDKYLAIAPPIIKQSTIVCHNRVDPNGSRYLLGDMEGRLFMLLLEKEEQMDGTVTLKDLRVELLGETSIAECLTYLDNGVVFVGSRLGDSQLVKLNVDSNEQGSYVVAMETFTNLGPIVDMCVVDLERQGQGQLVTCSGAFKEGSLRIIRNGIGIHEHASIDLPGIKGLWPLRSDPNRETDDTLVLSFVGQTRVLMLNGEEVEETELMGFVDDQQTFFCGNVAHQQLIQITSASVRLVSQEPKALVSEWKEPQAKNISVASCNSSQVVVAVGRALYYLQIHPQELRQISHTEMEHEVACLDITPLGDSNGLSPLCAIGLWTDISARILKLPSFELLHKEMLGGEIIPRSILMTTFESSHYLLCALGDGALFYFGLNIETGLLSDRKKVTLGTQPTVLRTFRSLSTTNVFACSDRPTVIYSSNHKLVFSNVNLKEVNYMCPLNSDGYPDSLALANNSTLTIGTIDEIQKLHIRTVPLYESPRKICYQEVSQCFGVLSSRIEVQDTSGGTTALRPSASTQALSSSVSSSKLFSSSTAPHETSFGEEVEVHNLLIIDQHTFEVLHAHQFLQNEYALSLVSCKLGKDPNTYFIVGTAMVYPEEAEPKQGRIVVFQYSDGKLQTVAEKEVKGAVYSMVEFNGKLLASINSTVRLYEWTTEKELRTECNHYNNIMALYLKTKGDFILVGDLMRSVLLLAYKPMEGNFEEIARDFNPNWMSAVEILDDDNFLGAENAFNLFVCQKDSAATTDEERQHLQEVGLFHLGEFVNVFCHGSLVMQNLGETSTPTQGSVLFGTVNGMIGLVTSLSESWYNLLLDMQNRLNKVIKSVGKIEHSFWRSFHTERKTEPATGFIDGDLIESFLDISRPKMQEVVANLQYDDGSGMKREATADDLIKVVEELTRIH
T4 sequence (Q13422 whole entry): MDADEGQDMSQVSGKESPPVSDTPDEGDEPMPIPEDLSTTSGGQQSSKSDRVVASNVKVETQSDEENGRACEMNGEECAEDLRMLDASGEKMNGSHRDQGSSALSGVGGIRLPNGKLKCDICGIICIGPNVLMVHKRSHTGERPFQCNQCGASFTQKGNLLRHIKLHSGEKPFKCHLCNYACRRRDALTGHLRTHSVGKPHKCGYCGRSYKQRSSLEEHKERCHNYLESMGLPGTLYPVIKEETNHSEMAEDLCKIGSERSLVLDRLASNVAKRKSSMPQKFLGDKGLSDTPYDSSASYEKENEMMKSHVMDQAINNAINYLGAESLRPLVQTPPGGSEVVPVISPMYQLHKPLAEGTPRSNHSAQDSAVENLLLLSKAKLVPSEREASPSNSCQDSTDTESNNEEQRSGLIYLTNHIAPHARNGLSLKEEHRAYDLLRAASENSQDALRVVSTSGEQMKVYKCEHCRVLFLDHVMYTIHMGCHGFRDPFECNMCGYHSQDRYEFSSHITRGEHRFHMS
T5 sequence (Q96SW2 whole entry partner): as the sequence (Q96SW2 whole entry partner) above
T5 sequence (Q16531 whole entry partner): as the sequence (Q16531 whole entry partner) above
T5 sequence (Q9UKT9 whole entry): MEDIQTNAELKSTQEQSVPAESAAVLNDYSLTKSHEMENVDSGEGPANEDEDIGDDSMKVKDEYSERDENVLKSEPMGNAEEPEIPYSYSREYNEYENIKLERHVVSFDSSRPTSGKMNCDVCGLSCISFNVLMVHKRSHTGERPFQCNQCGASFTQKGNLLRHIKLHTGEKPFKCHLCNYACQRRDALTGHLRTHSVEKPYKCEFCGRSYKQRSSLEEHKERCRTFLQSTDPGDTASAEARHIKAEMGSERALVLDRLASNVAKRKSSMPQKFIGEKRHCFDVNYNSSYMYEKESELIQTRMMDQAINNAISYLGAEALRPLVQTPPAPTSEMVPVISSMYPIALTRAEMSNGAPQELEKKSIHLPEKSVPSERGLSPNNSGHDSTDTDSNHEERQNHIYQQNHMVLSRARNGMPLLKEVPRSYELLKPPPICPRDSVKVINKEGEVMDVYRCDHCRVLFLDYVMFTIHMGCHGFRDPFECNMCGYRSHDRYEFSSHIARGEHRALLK
T1 sequence (Q96SW2 whole entry): as the sequence (Q96SW2 whole entry partner) above
T1 sequence (Q16531 whole entry partner): as the sequence (Q16531 whole entry partner) above
T2 sequence (Q9UKS7 whole entry): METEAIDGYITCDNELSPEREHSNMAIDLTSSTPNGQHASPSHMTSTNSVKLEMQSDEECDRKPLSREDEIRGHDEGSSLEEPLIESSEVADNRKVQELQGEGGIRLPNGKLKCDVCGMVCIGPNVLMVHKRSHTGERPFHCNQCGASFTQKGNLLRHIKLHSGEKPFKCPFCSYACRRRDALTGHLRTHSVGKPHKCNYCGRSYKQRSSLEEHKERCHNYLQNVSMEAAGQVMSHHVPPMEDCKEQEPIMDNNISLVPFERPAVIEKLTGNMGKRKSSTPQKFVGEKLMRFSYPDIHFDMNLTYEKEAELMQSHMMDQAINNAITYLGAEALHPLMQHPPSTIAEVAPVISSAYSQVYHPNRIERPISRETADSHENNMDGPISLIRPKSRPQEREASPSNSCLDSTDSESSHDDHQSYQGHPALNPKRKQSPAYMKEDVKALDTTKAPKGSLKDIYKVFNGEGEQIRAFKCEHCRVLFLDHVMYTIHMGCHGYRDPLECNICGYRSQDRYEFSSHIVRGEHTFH
T2 sequence (Q96SW2 whole entry): as the sequence (Q96SW2 whole entry partner) above
T2 sequence (Q16531 whole entry partner): as the sequence (Q16531 whole entry partner) above
T3 sequence (Q9UKS7 whole entry): as the sequence (Q9UKS7 whole entry) above
T3 sequence (Q96SW2 whole entry, further chain): as the sequence (Q96SW2 whole entry partner) above
T3 sequence (Q16531 whole entry partner): as the sequence (Q16531 whole entry partner) above

Turning to `Cc1cnc(C2CN([C@H]3CCCC[C@H]3Oc3ccc4c(c3)CN(C3CCC(=O)NC3=O)C4=O)C2)nc1` (mixture of isomers) [Compound 184-B, Rac-3-(5-(((cis)-2-(3-(5-methylpyrimidin-2-yl)azetidin-1-yl)cyclohexyl)oxy)-1-oxoisoindolin-2-yl)piperidine-2,6-dione], the 50% effective concentration (EC50) in assay [1] was 17 nM. The compound also showed an inhibition at 1 µM on IKZF2 (Helios) [2] of 79.6%. In addition, the DC50 at IKZF2 (Helios) [3] is 21 nM; at IKZF1 (Ikaros), over 30000 nM; on IKZF3 (Aiolos), over 30000 nM.
Regarding `O=C1CCC(N2Cc3cc(OC4CCCC4N4CC(c5ccc6cccnc6c5)C4)ccc3C2=O)C(=O)N1` (centres unmarked) [Compound 169-B, 3-(1-oxo-5-((2-(3-(quinolin-7-yl)azetidin-1-yl)cyclopentyl)oxy)isoindolin-2-yl)piperidine-2,6-dione], the EC50 in assay [1] was determined as 13 nM. At IKZF2 (Helios) [2], the inhibition at 1 µM turned out to be 56.3%. For the same compound, the 50% degradation concentration (DC50) on IKZF2 (Helios) [3] was 46 nM; at IKZF1 (Ikaros), over 30000 nM; on IKZF3 (Aiolos), over 30000 nM.
On to `O=C1CCC(N2Cc3cc(OC4CCCCC4N4CC(c5cncnc5)C4)ccc3C2=O)C(=O)N1` (centres unmarked) [Compound 212-B, 3-(1-oxo-5-((2-(3-(pyrimidin-5-yl)azetidin-1-yl)cyclohexyl)oxy)isoindolin-2-yl)piperidine-2,6-dione], for which the EC50 in assay [1] is 57 nM. Testing at 1 µM against IKZF2 (Helios) [2] gave an inhibition of 20.3%. In addition, the results for the DC50 at IKZF2 (Helios) [3], on IKZF1 (Ikaros) and at IKZF3 (Aiolos) were 425 nM, over 30000 nM and over 30000 nM, respectively.
Turning to `O=C1CCC(N2Cc3cc(O[C@H]4CCCC[C@@H]4N4CC(c5ccncc5)C4)ccc3C2=O)C(=O)N1` (single isomer, unassigned) [Compound 85-B], the EC50 in assay [1] came to 28 nM. The same compound showed an inhibition at 1 µM against IKZF2 (Helios) [2] of 27.5%. Also, the DC50 is 216 nM on IKZF2 (Helios) [3] and over 30000 nM at IKZF1 (Ikaros).
With `O=C1CCC(N2Cc3cc(O[C@H]4CCCC[C@@H]4N4CC(c5ccc6[nH]ncc6c5)C4)ccc3C2=O)C(=O)N1` (stereo partly drawn) [Compound 204-B, 3-(5-(((1S,2S)-2-(3-(1H-indazol-5-yl)azetidin-1-yl)cyclohexyl)oxy)-1-oxoisoindolin-2-yl)piperidine-2,6-dione], in assay [1], the EC50 was 37 nM. On IKZF2 (Helios) [2], testing at 1 µM gave an inhibition of 75.4%. For the same compound, the results for the DC50 at IKZF2 (Helios) [3], on IKZF1 (Ikaros) and on IKZF3 (Aiolos) were 22 nM, over 30000 nM and over 30000 nM, respectively.
`COc1ccc(C2CN([C@H]3CCCC3Oc3ccc4c(c3)CN(C3CCC(=O)NC3=O)C4=O)C2)cn1` (mixture of isomers) [Compound 201-B, Rac-3-(5-(((cis)-2-(3-(6-methoxypyridin-3-yl)azetidin-1-yl)cyclopentyl)oxy)-1-oxoisoindolin-2-yl)piperidine-2,6-dione]: the 50% effective concentration (EC50) in assay [1] amounted to 36 nM. Moreover, at IKZF2 (Helios) [2], 1 µM produced 62.7% inhibition. In addition, the results for the 50% degradation concentration (DC50) at IKZF2 (Helios) [3], on IKZF1 (Ikaros) and at IKZF3 (Aiolos) were 78 nM, over 30000 nM and over 30000 nM, respectively.
`N#Cc1cc(C2CN([C@@H]3CCCC[C@@H]3Oc3ccc4c(c3)CN(C3CCC(=O)NC3=O)C4=O)C2)ccn1` (mixture of isomers) [Compound 179-B, Rac-4-(1-((cis)-2-((2-(2,6-dioxopiperidin-3-yl)-1-oxoisoindolin-5-yl)oxy)cyclohexyl)azetidin-3-yl)picolinonitrile]: in assay [1], the EC50 worked out at 39 nM. Also, on IKZF2 (Helios) [2], 1 µM produced 68.6% inhibition. Further, the DC50 on IKZF2 (Helios) [3] was 46 nM; on IKZF1 (Ikaros) it was over 30000 nM; at IKZF3 (Aiolos) it was over 30000 nM.
For `O=C1CCC(N2Cc3cc(OC4CCC[C@@H]4N4CC(c5cccnc5)C4)ccc3C2=O)C(=O)N1` (mixture of isomers) [Compound 207-B, Rac-3-(1-oxo-5-(((cis)-2-(3-(pyridin-3-yl)azetidin-1-yl)cyclopentyl)oxy)isoindolin-2-yl)piperidine-2,6-dione], in assay [1], the EC50 was found to be 104 nM. The same compound gave an inhibition at 1 µM against IKZF2 (Helios) [2] of 24.8%. Further, the DC50 was 1470 nM at IKZF2 (Helios) [3], over 30000 nM at IKZF1 (Ikaros) and over 30000 nM at IKZF3 (Aiolos).
Consider `COc1cc(C2CN(C3CCCC3Oc3ccc4c(c3)CN(C3CCC(=O)NC3=O)C4=O)C2)ccn1` (centres unmarked) [Compound 170-B, 3-(5-((2-(3-(2-methoxypyridin-4-yl)azetidin-1-yl)cyclopentyl)oxy)-1-oxoisoindolin-2-yl)piperidine-2,6-dione], for which the EC50 in assay [1] was determined as 109 nM. This compound registered an inhibition at 1 µM at IKZF2 (Helios) [2] of 54.6%. Also, the values for the DC50 at IKZF2 (Helios) [3], at IKZF1 (Ikaros) and on IKZF3 (Aiolos) were 66 nM, over 30000 nM and over 30000 nM, respectively.
In the case of `O=C1CCC(N2Cc3cc(O[C@H]4CCCC[C@@H]4N4CC(c5ccc(C(F)(F)F)cn5)C4)ccc3C2=O)C(=O)N1` (mixture of isomers) [Compound 192-B, Rac-3-(1-oxo-5-(((trans)-2-(3-(5-(trifluoromethyl)pyridin-2-yl)azetidin-1-yl)cyclohexyl)oxy)isoindolin-2-yl)piperidine-2,6-dione], in assay [1], the EC50 turned out to be 7 nM. The compound further came in with an inhibition at 1 µM against IKZF2 (Helios) [2] of 25.6%. In addition, the DC50 on IKZF2 (Helios) [3] is 123 nM; on IKZF1 (Ikaros), over 30000 nM; at IKZF3 (Aiolos) it was over 30000 nM.
Turning to `O=C1CCC(N2Cc3cc(OC4CCCC4N4CC(c5cnc6ccccc6n5)C4)ccc3C2=O)C(=O)N1` (centres unmarked) [Compound 203-B, 3-(1-oxo-5-((2-(3-(quinoxalin-2-yl)azetidin-1-yl)cyclopentyl)oxy)isoindolin-2-yl)piperidine-2,6-dione], the EC50 in assay [1] worked out at 20 nM. Further, the inhibition at 1 µM against IKZF2 (Helios) [2] worked out at 25.1%. Further, the figures for the DC50 at IKZF2 (Helios) [3], at IKZF1 (Ikaros) and at IKZF3 (Aiolos) were 130 nM, over 30000 nM and over 30000 nM, respectively.
With `O=C1CCC(N2Cc3cc(O[C@@H]4CCCC[C@@H]4N4CC(c5ncc(C(F)(F)F)cn5)C4)ccc3C2=O)C(=O)N1` (mixture of isomers) [Compound 186-B, Rac-3-(1-oxo-5-(((cis)-2-(3-(5-(trifluoromethyl)pyrimidin-2-yl)azetidin-1-yl)cyclohexyl)oxy)isoindolin-2-yl)piperidine-2,6-dione], the EC50 in assay [1] was 6 nM. Also, 1 µM produced 79.7% inhibition at IKZF2 (Helios) [2]. The DC50 is 5 nM at IKZF2 (Helios) [3], over 30000 nM on IKZF1 (Ikaros) and over 30000 nM on IKZF3 (Aiolos).
For the compound `Cc1ccnc(C2CN([C@H]3CCCC[C@H]3Oc3ccc4c(c3)CN(C3CCC(=O)NC3=O)C4=O)C2)n1` (mixture of isomers) [Compound 185-B, Rac-3-(5-(((cis)-2-(3-(4-methylpyrimidin-2-yl)azetidin-1-yl)cyclohexyl)oxy)-1-oxoisoindolin-2-yl)piperidine-2,6-dione], the EC50 in assay [1] amounted to 30 nM. The compound further had an inhibition at 1 µM against IKZF2 (Helios) [2] of 80.3%. In addition, the values for the DC50 at IKZF2 (Helios) [3], at IKZF1 (Ikaros) and at IKZF3 (Aiolos) were 21 nM, over 30000 nM and over 30000 nM, respectively.
`O=C1CCC(N2Cc3cc(O[C@H]4CCCC[C@H]4N4CC(c5ccncc5)C4)ccc3C2=O)C(=O)N1` (single isomer, unassigned) [Compound 86-B]: in assay [1], the concentration for a half-maximal effect (EC50) was 76 nM. In addition, the “IKZF2 % Degradation @ 1 μM” value on IKZF2 (Helios) [2] was 22.5%. In addition, the DC50 on IKZF2 (Helios) [3] was 189 nM; on IKZF1 (Ikaros), over 30000 nM.
